Target: T1, human GPR40 (Homo sapiens, UniProt O14842)
T1 construct: expressed in transfected cells; host or cells: CHO cells, transiently transfected with Lipofectamine 2000 and co-transfected with an aequorin expression vector (Euroscreen)
Experiment: Cell-based aequorin assay using human GPR40
Details: activation of human GPR40; CHO cells transfected with GPR40 and aequorin expression vectors; aequorin luminescence, area-under-curve 2-20 seconds; read-out: Relative EC50
Experimental: A cell-based aequorin assay may be employed to characterize the modulatory activity of compounds on the GPR40 signaling pathway. In an exemplary assay, CHO cells are transfected in a 15 cm plated containing 14 million cells with 5 μg of GPR40 expression vector and 5 μg of Aequorin expression vector (Euroscreen) using Lipofectamine 2000 (Invitrogen). After 17-24 hours post-transfection, cells are washed with phosphate buffered saline (PBS) and detached from the tissue culture dish with 2 mL of trypsin (0.25%(w/v)). Trypsinization is halted with 28 mL of Hanks Buffered Salt Solution containing 20 mM Hepes (H/HBSS) and 0.01% fatty acid-free bovine serum albumin (BSA) or 0.625% fatty acid-free human serum albumin (HSA). Coelantrazine is added to 1 ug/mL and the cells are incubated for 2 hours at room temperature. Cells are gently mixed every 15 minutes. Compounds are dissolved in dimethyl sulfoxide for preparation of 10 mM stock solutions. Compounds are diluted in H/HBSS containing either 0.01% BSA or 0.625% HSA. Serial dilutions of the test compounds are prepared to determine dose response.
Aequorin luminescence measurements are made using an EG&G Berthold 96-well luminometer and the response is measured over a 20 second interval after cells and compounds were mixed. The area-under-curve from 2-20 seconds is plotted to determine dose reponse. The EC50 (effective concentration to reach 50% maximal response) is determined from the dose response plot. […]

T1 sequence (O14842 whole entry): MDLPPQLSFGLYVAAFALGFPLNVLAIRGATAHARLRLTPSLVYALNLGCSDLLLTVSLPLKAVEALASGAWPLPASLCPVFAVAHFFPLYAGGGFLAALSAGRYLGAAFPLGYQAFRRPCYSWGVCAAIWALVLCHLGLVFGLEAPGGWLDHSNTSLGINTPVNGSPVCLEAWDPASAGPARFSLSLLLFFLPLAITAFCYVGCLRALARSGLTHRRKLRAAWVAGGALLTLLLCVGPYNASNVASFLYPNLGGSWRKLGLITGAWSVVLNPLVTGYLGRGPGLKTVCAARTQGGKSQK

Row | SMILES | EC50
1 | Cc1ccccc1COc1ccc(C(C#CC(F)(F)F)CC(=O)O)cc1 (stereo not drawn) [Compound 75] | > 10 µM
2 | CC#CC(CC(=O)O)c1ccc(OCc2ccc(-c3ccc(OCC)cc3)cc2)cc1 (stereo not drawn) [Compound 7.9] | 0.1 to 1 µM
3 | CC#CC(CC(=O)O)c1ccc(OCc2nc(-c3ccc(C(F)(F)F)cc3)oc2C)cc1 (stereo not drawn) [Compound 18, 3-{4-[5-Methyl-2-(4-trifluoromethyl-phenyl)-oxazol-4-ylmethoxy]-phenyl}-hex-4-ynoic acid] | 0.01 to 0.1 µM
4 | COc1cccc(C(CC(=O)O)c2ccc(OCc3cccc(Oc4ccccc4)c3)cc2)c1 (stereo not drawn) [Compound 84.8] | 0.1 to 1 µM
5 | CC(C)(C)OC(=O)N[C@@H](CC(=O)O)c1ccc(OCc2cccc(Oc3ccc(F)cc3)c2)cc1 [Compound 42.11, (S)-3-tert-Butoxycarbonylamino-3-{4-[3-(4-fluoro-phenoxy)-benzyloxy]-phenyl}-propionic acid] | 0.1 to 1 µM
6 | CC#CC(CC(=O)O)c1ccc(OCc2csc(-c3ccc(C(F)(F)F)cc3)n2)cc1 (stereo not drawn) [Compound 8.1] | 0.01 to 0.1 µM
7 | CC#CC(CC(=O)O)c1ccc(OCc2sc(-c3ccc(OC)c(OC)c3)nc2C)cc1 (stereo not drawn) [Compound 9.4] | 0.01 to 0.1 µM
8 | O=C(O)CN(c1ccccc1)c1ccc(NC(=O)Cc2ccccc2)cc1 [Compound 82.4] | 0.01 to 0.1 µM
9 | O=C(O)CN(c1ccccc1)c1ccc(NCc2cccc(Oc3ccccc3)c2)cc1 [Compound 82.3] | < 0.01 µM
10 | COc1ccc(COc2ccc(C(C=C(C)C)CC(=O)O)cc2)cc1 (stereo not drawn) [Compound 34.5] | 0.1 to 1 µM
11 | O=C(O)CC1(c2ccc(OCc3cccc(-c4ccc(C(F)(F)F)cc4)c3)cc2)CC1 [Compound 89] | 1 to 10 µM
12 | Cc1ccc(C(CC(=O)O)c2ccc(OCc3cccc(Oc4ccccc4)c3)cc2)cc1 (single isomer, unassigned) [Compound 84.3] | 0.1 to 1 µM
13 | CC#CC(CC(=O)NS(C)(=O)=O)c1ccc(OCc2ccc(OC)cc2)cc1 (stereo not drawn) [Compound 81] | 1 to 10 µM
14 | CC#C[C@@H](CC(=O)O)c1ccc(OCc2csc(-c3ccc(C(F)(F)F)cc3)n2)cc1 [Compound 80] | < 0.01 µM
15 | Cc1ccccc1COc1ccc(C(C#CC(C)C)CC(=O)O)cc1 (stereo not drawn) [Compound 71] | 0.1 to 1 µM
16 | COCC#CC(CC(=O)O)c1ccc(OCc2ccc(OC)cc2)cc1 (stereo not drawn) [Compound 14.5] | 1 to 10 µM
17 | CCC(=O)N[C@@H](CC(=O)O)c1ccc(OCc2cccc(Oc3ccc(F)cc3)c2)cc1 [Compound 88.2] | > 10 µM
18 | COc1ccc(C(CC(=O)O)c2ccc(OCc3cccc(Oc4ccccc4)c3)cc2)cc1 (stereo not drawn) [Compound 84.7] | 0.1 to 1 µM
19 | CC#CC(CC(=O)Nc1nccs1)c1ccc(OCc2ccc(OC)cc2)cc1 (stereo not drawn) [Compound 24, 3-[4-(4-Methoxy-benzyloxy)-phenyl]-hex-4-ynoic acid thiazol-2-ylamide] | 0.1 to 1 µM
20 | CC#CC(CC(=O)O)c1ccc(OCc2cccc(-c3ccc(C#N)cc3)c2)cc1 (stereo not drawn) [Compound 6.7] | 0.01 to 0.1 µM
21 | CC#CC(CC(=O)O)c1ccc(OCc2cccc(-c3ccc(OCC)cc3)c2)cc1 (stereo not drawn) [Compound 6.3] | 0.01 to 0.1 µM

Row | SMILES | EC50
22 | CC#CC(CC(=O)O)c1ccc(NC(=O)c2cccc(OC)c2)cc1 (stereo not drawn) [Compound 74] | 1 to 10 µM
23 | CC#CC(CC(=O)O)c1ccc(OCc2cccc(-c3ccncc3)c2)cc1 (stereo not drawn) [Compound 10.10] | 0.1 to 1 µM
24 | CC#CC(CC(=O)O)c1ccc(OCc2cccc(-c3ccccc3)c2)cc1 (stereo not drawn) [Compound 6.1] | 0.01 to 0.1 µM
25 | CC#CC(CC(=O)O)c1ccc(OCc2ccc(Cc3ccccc3)cc2)cc1 (stereo not drawn) [Compound 10.6] | 0.01 to 0.1 µM
26 | O=C(O)CC(c1ccc(OCc2cccc(-c3ccc(C(F)(F)F)cc3)c2)cc1)c1nccs1 (stereo not drawn) [Compound 56] | 0.1 to 1 µM
27 | CC#CC(CC(=O)O)c1ccc(OCc2cnn(-c3ccc(F)cc3)c2C)cc1 (stereo not drawn) [Compound 11.1] | 0.1 to 1 µM
28 | CC#CC(CC(=O)O)c1ccc(OCc2ccc(-c3cccc(OCC)c3)cc2)cc1 (stereo not drawn) [Compound 7.8] | 0.1 to 1 µM
29 | OC(O)CC(c1ccc(OCc2cccc(-c3ccc(C(F)(F)F)cc3)c2)cc1)C1CC1 (stereo not drawn) [Compound 91] | 1 to 10 µM
30 | CCC(CC(=O)O)c1ccc(OCc2ccc(OC)cc2)cc1 (stereo not drawn) [Compound 14.3] | 1 to 10 µM
31 | CC#CC(CC(=O)O)c1ccc(N(C)Cc2cccc(OC)c2)cc1 (stereo not drawn) [Compound 73] | 1 to 10 µM
32 | CC#CC(CC(=O)O)c1ccc(OCc2ccc(-n3cncn3)cc2)cc1 (stereo not drawn) [Compound 79] | 1 to 10 µM
33 | Cc1ccccc1COc1ccc(C(C#CC(F)(F)F)CC(=O)O)cc1 (stereo not drawn) [Compound 87] | > 10 µM
34 | CC#CC(CC(=O)O)c1ccc(SCc2ccccc2C)cc1 (stereo not drawn) [Compound 28, 3-[4-(2-Methyl-benzylsulfanyl)-phenyl]-hex-4-ynoic acid] | 0.1 to 1 µM
35 | CC#CC(CC(=O)O)c1ccc(OCc2ccc(-c3ccncc3)cc2)cc1 (stereo not drawn) [Compound 10.13] | 0.1 to 1 µM
36 | CN(C)[C@@H](CC(=O)O)c1ccc(OCc2cccc(Oc3ccc(F)cc3)c2)cc1 (stereo in doubt) [Compound 42.14, 3-Dimethylamino-3-{4-[3-(4-fluoro-phenoxy)-benzyloxy]-phenyl}-propionic acid] | 0.1 to 1 µM
37 | CC#CC(CC(=O)O)c1ccc(OCc2ccc(S(=O)(=O)c3ccccc3)cc2)cc1 (stereo not drawn) [Compound 10.5] | 0.1 to 1 µM
38 | CC#CC(CC(=O)O)c1ccc(OCc2cc(-c3ccccc3)no2)cc1 (stereo not drawn) [Compound 77] | 0.1 to 1 µM
39 | O=C(O)CC(c1ccc(OCc2cccc(-c3ccc(C(F)(F)F)cc3)c2)cc1)c1cccnc1 (stereo not drawn) [Compound 70.2] | 0.1 to 1 µM
40 | CC#CC(CC(=O)O)c1ccc(OCc2ccc(-c3cccnc3)cc2)cc1 (stereo not drawn) [Compound 10.12] | 1 to 10 µM
41 | C#CC(CC(=O)O)c1ccc(OCc2ccc(OC)cc2)cc1 (stereo not drawn) [Compound 41] | 0.1 to 1 µM
42 | O=C(O)C[C@H](NC(=O)c1ccccc1)c1ccc(OCc2cccc(Oc3ccc(F)cc3)c2)cc1 [Compound 88.3] | > 10 µM

— patent US20060004012A1, “Compounds, pharmaceutical compositions and methods for use in treating metabolic disorders” (priority 2004, published 2006)
